Data reported in article PMC6576746, “Rational discovery of dual-indication multi-target PDE/Kinase inhibitor for precision anti-cancer therapy using structural systems pharmacology” (PLoS Computational Biology, 2019).

How the values were obtained:
Assay in all cases: biochemical
Parameters in all cases: DiscoverX KinomeScan competition binding assay across human kinases; per cent of control at 10 and 100 uM
[1] = target: ACVR2A (Homo sapiens, UniProt P27037); settings: competition binding, % of control
Sequence of ACVR2A (P27037 whole entry): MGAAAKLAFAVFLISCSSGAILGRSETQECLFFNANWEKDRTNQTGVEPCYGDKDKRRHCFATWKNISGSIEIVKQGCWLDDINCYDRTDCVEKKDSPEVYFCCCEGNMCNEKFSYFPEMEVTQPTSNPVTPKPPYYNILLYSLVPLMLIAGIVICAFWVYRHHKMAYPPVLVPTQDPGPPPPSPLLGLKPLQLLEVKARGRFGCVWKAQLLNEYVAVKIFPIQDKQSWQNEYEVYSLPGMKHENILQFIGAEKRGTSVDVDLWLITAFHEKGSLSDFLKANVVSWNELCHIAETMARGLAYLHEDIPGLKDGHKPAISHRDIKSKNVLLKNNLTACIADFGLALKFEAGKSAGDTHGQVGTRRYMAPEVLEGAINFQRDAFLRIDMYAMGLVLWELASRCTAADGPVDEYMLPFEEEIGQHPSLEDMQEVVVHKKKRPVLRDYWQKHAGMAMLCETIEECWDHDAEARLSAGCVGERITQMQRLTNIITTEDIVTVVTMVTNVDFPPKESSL
Outline: (§1)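 Binding is expressed as %control, normalised between positive and negative control signals. The compound (levosimendan) was tested at 10 μM and 100 μM in the DiscoverX KinomeScan competition binding format against human kinases.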

[2] = target: T1, CDK4-cyclinD3 (Homo sapiens, UniProt P11802); settings: competition binding, % of control; read-out: Percent Control (100 uM Levosimendan)
T1 construct: cyclinD3
T1 sequence (P11802 whole entry): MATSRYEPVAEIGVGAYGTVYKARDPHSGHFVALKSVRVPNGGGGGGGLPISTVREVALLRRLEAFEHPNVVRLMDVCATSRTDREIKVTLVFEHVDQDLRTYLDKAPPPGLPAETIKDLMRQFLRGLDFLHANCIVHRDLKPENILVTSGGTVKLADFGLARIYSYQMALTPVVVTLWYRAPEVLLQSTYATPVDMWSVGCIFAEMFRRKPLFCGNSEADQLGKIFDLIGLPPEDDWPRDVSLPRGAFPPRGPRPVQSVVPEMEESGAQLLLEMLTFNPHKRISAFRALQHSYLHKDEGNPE
T1 sequence (P30281 whole entry partner): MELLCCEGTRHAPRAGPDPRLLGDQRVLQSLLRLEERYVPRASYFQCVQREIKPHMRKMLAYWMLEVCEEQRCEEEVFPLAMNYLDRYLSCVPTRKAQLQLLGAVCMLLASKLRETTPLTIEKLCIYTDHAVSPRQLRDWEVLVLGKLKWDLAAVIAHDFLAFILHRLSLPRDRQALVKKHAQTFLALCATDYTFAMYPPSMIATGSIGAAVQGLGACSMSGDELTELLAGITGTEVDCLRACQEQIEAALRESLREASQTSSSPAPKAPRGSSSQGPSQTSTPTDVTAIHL
Outline: as §1

[3] = target: DDR1 (Homo sapiens, UniProt Q08345); settings: competition binding, % of control; read-out: Percent Control (100 uM Levosimendan)
Sequence of DDR1 (Q08345 whole entry): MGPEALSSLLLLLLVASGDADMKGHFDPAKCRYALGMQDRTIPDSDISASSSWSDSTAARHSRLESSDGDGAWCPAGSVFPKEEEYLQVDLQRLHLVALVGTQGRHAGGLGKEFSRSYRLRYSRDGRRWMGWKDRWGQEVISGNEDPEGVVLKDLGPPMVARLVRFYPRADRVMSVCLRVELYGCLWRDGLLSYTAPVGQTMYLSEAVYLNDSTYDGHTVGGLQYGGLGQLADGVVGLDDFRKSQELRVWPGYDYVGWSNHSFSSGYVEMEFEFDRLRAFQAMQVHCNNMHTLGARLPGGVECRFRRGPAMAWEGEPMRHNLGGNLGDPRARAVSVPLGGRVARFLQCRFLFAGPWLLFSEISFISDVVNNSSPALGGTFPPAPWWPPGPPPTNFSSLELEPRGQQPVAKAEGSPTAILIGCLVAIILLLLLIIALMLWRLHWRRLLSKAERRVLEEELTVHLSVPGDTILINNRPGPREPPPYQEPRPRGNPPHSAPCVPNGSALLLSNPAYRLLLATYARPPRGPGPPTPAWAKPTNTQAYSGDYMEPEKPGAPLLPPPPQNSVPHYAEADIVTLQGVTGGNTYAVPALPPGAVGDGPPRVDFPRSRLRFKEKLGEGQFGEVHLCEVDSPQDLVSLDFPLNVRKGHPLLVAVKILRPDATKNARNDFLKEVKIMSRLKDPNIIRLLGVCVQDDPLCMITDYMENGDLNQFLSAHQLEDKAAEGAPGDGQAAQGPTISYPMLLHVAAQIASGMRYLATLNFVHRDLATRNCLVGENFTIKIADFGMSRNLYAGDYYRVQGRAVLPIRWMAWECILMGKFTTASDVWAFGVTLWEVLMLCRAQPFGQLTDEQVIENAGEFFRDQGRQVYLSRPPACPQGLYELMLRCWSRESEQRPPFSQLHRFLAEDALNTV
Outline: as §1

[4] = target: GRK4 (Homo sapiens, UniProt P32298); settings: competition binding, % of control; read-out: Percent Control (100 uM Levosimendan)
Outline: as §1

[5] = target: GSK3B (Homo sapiens, UniProt P49841); settings: competition binding, % of control; read-out: Percent Control (100 uM Levosimendan)
Sequence of GSK3B (P49841 whole entry): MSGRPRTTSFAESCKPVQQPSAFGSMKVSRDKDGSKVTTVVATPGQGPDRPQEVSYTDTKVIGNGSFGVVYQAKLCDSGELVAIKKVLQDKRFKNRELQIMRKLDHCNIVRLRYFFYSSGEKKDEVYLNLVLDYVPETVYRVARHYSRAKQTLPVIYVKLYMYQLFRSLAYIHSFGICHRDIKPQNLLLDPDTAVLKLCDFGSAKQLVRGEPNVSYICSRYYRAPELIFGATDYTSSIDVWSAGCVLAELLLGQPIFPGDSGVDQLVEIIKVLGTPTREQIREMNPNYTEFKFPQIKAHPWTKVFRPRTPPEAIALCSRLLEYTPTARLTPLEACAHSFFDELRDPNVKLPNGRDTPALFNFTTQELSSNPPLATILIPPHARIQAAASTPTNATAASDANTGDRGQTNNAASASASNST
Outline: as §1

[6] = target: INSRR (Homo sapiens, UniProt P14616); settings: competition binding, % of control; read-out: Percent Control (100 uM Levosimendan)
Outline: as §1

[7] = target: MAP4K5 (Homo sapiens, UniProt Q9Y4K4); settings: competition binding, % of control; read-out: Percent Control (100 uM Levosimendan)
Outline: as §1

[8] = target: MELK (Homo sapiens, UniProt Q14680); settings: competition binding, % of control; read-out: Percent Control (100 uM Levosimendan)
Outline: as §1

[9] = target: MET (Homo sapiens, UniProt P08581); settings: competition binding, % of control; read-out: Percent Control (100 uM Levosimendan)
Sequence of MET (P08581 whole entry): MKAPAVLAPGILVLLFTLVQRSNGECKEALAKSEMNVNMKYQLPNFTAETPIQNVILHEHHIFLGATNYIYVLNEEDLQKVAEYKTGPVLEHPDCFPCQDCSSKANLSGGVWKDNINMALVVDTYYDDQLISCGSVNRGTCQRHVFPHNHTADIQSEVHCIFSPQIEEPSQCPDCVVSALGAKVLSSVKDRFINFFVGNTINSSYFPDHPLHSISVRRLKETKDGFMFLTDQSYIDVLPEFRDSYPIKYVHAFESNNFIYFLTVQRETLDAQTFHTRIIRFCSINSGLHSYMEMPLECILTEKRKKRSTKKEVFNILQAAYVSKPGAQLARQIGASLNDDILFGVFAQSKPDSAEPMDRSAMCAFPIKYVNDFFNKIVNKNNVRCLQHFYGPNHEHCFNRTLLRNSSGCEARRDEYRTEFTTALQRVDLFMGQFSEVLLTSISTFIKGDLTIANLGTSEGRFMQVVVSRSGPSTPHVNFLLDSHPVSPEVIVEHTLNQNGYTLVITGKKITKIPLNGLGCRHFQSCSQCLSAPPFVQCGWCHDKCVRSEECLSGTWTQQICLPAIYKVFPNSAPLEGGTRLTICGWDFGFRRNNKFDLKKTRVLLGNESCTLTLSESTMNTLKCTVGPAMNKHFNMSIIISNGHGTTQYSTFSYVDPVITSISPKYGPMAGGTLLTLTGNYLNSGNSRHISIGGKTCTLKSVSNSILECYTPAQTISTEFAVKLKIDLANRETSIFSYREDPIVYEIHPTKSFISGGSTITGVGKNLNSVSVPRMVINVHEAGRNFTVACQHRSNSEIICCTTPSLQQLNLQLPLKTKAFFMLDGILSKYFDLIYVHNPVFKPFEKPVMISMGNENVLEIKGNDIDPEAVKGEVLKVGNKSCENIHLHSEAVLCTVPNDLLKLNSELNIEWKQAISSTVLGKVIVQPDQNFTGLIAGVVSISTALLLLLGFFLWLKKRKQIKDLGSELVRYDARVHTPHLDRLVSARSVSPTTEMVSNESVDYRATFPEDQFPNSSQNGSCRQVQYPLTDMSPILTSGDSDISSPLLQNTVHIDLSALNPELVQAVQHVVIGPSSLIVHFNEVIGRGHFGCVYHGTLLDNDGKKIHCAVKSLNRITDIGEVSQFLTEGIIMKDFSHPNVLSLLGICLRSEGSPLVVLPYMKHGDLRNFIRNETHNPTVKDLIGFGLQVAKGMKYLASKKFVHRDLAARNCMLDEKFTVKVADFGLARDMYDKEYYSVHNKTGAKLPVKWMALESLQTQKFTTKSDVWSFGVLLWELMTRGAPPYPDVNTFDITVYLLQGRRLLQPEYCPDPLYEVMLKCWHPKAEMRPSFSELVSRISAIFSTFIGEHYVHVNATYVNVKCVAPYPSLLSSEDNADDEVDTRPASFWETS
Outline: as §1

[10] = target: T2, NDR2 (Homo sapiens, UniProt Q9Y2H1); settings: competition binding, % of control; read-out: Percent Control (100 uM Levosimendan)
T2 construct: gene STK38L
Outline: as §1

[11] = target: PRKG1 (Homo sapiens, UniProt Q13976); settings: competition binding, % of control; read-out: Percent Control (100 uM Levosimendan)
Outline: as §1

[12] = target: T3, RIOK3 (Homo sapiens, UniProt O14730); settings: competition binding, % of control
T3 sequence (O14730 1-519): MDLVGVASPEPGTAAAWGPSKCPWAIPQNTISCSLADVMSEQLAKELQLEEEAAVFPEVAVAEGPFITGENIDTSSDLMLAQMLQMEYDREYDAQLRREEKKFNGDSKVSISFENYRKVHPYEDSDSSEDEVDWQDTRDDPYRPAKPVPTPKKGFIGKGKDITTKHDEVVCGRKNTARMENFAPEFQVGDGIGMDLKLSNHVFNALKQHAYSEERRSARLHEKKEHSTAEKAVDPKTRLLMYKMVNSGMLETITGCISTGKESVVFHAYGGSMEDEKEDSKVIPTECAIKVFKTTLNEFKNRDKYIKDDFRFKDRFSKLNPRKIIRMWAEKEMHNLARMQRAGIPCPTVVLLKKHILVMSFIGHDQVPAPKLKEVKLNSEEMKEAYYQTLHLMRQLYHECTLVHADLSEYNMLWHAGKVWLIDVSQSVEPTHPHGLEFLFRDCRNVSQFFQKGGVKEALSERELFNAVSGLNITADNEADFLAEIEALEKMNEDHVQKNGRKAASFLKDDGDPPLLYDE
Outline: as §1

[13] = target: SRPK3 (Homo sapiens, UniProt Q9UPE1); settings: competition binding, % of control; read-out: Percent Control (100 uM Levosimendan)
Sequence of SRPK3 (Q9UPE1 whole entry): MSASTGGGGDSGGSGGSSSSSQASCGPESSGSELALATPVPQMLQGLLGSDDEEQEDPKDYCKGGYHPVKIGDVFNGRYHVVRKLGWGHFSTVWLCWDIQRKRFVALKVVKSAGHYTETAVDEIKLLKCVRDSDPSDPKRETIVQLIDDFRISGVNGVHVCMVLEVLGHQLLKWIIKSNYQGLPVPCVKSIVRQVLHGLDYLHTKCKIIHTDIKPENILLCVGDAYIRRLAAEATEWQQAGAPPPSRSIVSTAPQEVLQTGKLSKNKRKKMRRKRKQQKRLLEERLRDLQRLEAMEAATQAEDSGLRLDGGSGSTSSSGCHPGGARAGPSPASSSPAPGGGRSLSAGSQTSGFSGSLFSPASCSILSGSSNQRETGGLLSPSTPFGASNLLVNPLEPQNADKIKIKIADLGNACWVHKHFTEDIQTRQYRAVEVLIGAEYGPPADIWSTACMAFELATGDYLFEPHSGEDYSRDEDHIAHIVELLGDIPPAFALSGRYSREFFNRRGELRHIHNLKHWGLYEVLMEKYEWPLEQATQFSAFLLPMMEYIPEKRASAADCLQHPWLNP
Outline: as §1

[14] = target: TAOK1 (Homo sapiens, UniProt Q7L7X3); settings: competition binding, % of control; read-out: Percent Control (100 uM Levosimendan)
Outline: as §1

[15] = target: TSSK3 (Homo sapiens, UniProt Q96PN8); settings: competition binding, % of control; read-out: Percent Control (100 uM Levosimendan)
Sequence of TSSK3 (Q96PN8 whole entry): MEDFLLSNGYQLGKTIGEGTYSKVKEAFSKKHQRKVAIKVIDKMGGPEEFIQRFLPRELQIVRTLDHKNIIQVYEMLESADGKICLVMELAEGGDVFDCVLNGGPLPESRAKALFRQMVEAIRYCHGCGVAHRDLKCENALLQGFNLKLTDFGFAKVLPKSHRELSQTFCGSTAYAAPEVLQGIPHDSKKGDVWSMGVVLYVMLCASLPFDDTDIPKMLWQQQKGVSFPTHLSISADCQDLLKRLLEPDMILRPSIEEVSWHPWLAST
Outline: as §1

[16] = read-out: Percent Control (10 uM Levosimendan)
[17] = read-out: Percent Control (100 uM Levosimendan)

For `C[C@@H]1CC(=O)NN=C1c1ccc(NN=C(C#N)C#N)cc1` [levosimendan], the remaining binding at 10 µM [1, 16] was 100%, the remaining binding at 100 µM [1, 17] was 46% and the remaining binding at 100 µM [2] was 100%. The remaining binding at 100 µM [3] was 84%, the remaining binding at 100 µM [4] was 100% and the remaining binding at 100 µM [5] was 100%. The remaining binding at 100 µM [6] was 96%, the remaining binding at 100 µM [7] was 100% and the remaining binding at 100 µM [8] was 100%. The remaining binding at 100 µM [9] was 55%, the remaining binding at 100 µM [10] was 96% and the remaining binding at 100 µM [11] was 64%. For the same compound, the remaining binding at 10 µM [12, 16] was 15%, the remaining binding at 100 µM [12, 17] was 0% and the remaining binding at 100 µM [13] was 63%. It also gave a remaining binding at 100 µM [14] of 100% and a remaining binding at 100 µM [15] of 100%.
